According to paper PMC5849682, “Novel 2-pheynlbenzofuran derivatives as selective butyrylcholinesterase inhibitors for Alzheimer’s disease” (Scientific Reports, 2018):

Experiments:
[1] = ABTS radical-scavenging antioxidant assay; conditions: mean ± SD of three independent experiments
Procedure: Total free radical-scavenging capacity of the compounds was determined by ABTS^.+ [2,2′-azinobis-(3-ethylbenzothiazoline-6-sulfonic acid)] method using Trolox as antioxidant standard, as previously reported.

[2] = target: T1, EeAChE (Electrophorus electricus, UniProt O42275); assay: biochemical; assay type: biochemical; conditions: for IC50: mean ± SD, n = 3
T1 construct: purchased Sigma-Aldrich
T1 sequence (O42275 24-633): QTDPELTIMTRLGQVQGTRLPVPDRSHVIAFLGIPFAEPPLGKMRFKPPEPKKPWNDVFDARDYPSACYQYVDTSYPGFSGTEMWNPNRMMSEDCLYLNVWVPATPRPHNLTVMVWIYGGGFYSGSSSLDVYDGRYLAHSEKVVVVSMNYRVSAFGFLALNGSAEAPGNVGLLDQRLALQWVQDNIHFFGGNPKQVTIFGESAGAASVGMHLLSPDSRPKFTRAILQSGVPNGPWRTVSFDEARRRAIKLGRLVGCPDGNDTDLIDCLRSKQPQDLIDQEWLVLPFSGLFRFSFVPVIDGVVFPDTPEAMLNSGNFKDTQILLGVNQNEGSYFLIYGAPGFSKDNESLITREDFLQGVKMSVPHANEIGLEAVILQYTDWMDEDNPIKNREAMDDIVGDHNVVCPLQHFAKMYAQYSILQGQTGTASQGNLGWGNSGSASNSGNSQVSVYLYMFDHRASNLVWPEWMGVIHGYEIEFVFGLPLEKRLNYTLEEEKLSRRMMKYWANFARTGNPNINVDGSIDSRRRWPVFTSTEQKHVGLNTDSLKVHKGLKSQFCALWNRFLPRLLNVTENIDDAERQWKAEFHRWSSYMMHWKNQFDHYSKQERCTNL
Procedure: (§1) The enzymes and reagents for biochemical assays were obtained from Sigma-Aldrich. Kinetic assays of cholinesterase activity were performed using Ellman’s method and analyzed as previously described. Briefly, in the microplate assay the reaction mixture contained phosphate buffer (0.1 M, pH 8.0), AChE or BChE solution (0.3 or 0.15 U/mL respectively), 5,5′-dithiobis-(2-nitrobenzoic) acid (DTNB; 1.5 mM), and inhibitor dissolved in 1% DMSO at the desired concentrations or DMSO alone (control) in a final volume of 0.2 mL. […] The activity of the enzymes was performed at 25 °C.
(§2) Acetylcholinesterase was from Electrophorus electricus (EeAChE), while butylcholinesterase was from equine serum (eqBChE) or human serum (hBChE).
(§3) IC50 values were calculated by the interpolation of dose-response curves using GraphPad Prism 6 (Graphpad Software, San Diego, California, USA).

[3] = target: T2, eqBChE (Equus caballus, UniProt P81908); assay: biochemical; assay type: biochemical; conditions: for Selectivity to eqBChE: IC50 for AChE/IC50 for BChE; for IC50: mean ± SD, n = 3
T2 construct: butylcholinesterase was from equine serum (eqBChE); purchased Sigma-Aldrich; host or cells: equine serum
T2 sequence (P81908 whole entry): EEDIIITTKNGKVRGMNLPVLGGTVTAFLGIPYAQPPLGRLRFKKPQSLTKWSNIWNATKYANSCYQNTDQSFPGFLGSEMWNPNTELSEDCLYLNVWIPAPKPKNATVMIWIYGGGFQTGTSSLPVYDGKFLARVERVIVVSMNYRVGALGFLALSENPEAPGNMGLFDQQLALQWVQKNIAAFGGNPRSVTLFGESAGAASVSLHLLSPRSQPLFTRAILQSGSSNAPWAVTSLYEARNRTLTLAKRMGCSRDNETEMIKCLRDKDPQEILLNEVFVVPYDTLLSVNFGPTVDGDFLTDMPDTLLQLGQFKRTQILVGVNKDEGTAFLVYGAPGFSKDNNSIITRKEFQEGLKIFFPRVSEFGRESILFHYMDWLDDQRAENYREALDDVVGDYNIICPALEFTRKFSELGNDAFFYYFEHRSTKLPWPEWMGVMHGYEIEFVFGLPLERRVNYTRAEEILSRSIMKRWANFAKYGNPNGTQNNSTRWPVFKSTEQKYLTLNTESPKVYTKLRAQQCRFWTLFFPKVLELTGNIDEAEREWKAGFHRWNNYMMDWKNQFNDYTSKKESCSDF
Procedure: as §1, §2, §3

[4] = target: T2, eqBChE; assay: Kinetic study of eqBChE inhibition (Lineweaver-Burk plots); assay type: biochemical; conditions: for type of inhibition: Lineweaver-Burk plot analysis; for KIS (binding with the enzyme-substrate complex): secondary plot of 1/Vmax versus compound concentration; for KIS (binding with the enzyme-substrate complex) / Ki: substrate BTCI; for Ki: secondary plot of slope (Km/Vmax) versus compound concentration, read-out: KI (binding with the free enzyme)
Procedure: . Further to evaluate the selective characteristics and type of inhibition, we investigated the kinetic behaviour of eqBChE at different concentration of S-butyrylthiocholine iodide (BTCI) and inhibitors by Lineweaver-Burk plot analysis (Fig. 2).
The enzymes and reagents for biochemical assays were obtained from Sigma-Aldrich. Kinetic assays of cholinesterase activity were performed using Ellman’s method and analyzed as previously described. Briefly, in the microplate assay the reaction mixture contained phosphate buffer (0.1 M, pH 8.0), AChE or BChE solution (0.3 or 0.15 U/mL respectively), 5,5′-dithiobis-(2-nitrobenzoic) acid (DTNB; 1.5 mM), and inhibitor dissolved in 1% DMSO at the desired concentrations or DMSO alone (control) in a final volume of 0.2 mL. Finally, acetylthiocholine iodide (ATCI) or S-butyrylthiocholine iodide (BTCI) (1.5 mM) as the substrate was added to the reaction mixture and the absorbance immediately monitored at 405 nm. The activity of the enzymes was performed at 25 °C.
Kinetic characterization was performed by constructing Lineweaver-Burk plots by plotting 1/V vs 1/[S] in the presence of different concentrations of inhibitor and substrate. Kinetics constants were determined by the replots of the Slopes (KM/Vmax) or 1/Vmax versus the inhibitor concentration.

[5] = target: T3, hBChE (Homo sapiens, UniProt P06276); assay: Cholinesterase assay (Ellman's method), hBChE; assay type: biochemical; conditions: for IC50: mean ± SD, n = 3; for hBChE inhibitory activity, times more active than galantamine: relative to reference compound galantamine, same assay conditions
T3 construct: butylcholinesterase was from equine serum (eqBChE) or human serum (hBChE); purchased Sigma-Aldrich; host or cells: human serum
T3 sequence (P06276 29-602): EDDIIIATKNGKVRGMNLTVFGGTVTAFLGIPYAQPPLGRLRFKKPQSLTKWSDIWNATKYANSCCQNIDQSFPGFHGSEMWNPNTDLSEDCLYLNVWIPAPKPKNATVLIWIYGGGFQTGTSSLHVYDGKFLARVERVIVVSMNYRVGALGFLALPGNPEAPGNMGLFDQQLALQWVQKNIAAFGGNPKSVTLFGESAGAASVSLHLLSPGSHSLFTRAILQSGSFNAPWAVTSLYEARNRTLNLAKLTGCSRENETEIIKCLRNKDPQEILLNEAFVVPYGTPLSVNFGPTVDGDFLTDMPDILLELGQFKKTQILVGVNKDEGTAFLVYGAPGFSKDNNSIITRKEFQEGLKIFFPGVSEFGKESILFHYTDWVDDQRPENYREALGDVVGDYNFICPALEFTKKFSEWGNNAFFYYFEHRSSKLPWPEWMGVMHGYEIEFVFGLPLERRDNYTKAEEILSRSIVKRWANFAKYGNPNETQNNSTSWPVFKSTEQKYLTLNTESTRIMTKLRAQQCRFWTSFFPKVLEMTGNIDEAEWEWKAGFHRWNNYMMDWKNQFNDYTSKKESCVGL
Procedure: as §1, §2, §3

[6] = system: NSC-34 cells; assay: MTT cell viability assay; assay type: cell-based, Mouse; conditions: 0–100 μM, 24 h, at the concentration in which eqBChE activity was inhibited
Procedure: After obtaining encouraging results from the inhibitory assay experiments, biosafety effectiveness of the two promising compounds (15 and 17) was further evaluated. Cells were treated with different concentration of each compound (0–100 μM) for 24 h and their potential cytotoxic effect on NSC-34 cells was determined by using MTT assay. Viability of the cells treated with the compounds 15 and 17 and comparison to the control cells were performed (Fig. 4).
Mouse motor neuron like cell line (NSC-34) was purchased from the American Type Culture Collection (ATCC, Manassas, Virginia, USA). The cells were cultured in Dulbecco’s Modified Eagle Medium (DMEM) containing 10% fetal bovine serum (FBS; Gibco, NY, USA), and 1% penicillin/streptomycin at 37 °C in a humidified atmosphere with 5% CO2. Cell viability was detected by the colorimetric 3-(4,5-dimethylthiazol-2-yl)-2,5-diphenyltetrazolium bromide (MTT) assay. This is a colorimetric assay for measuring the activity of mitochondrial enzymes in living cells that convert MTT into purple formazan crystals. Briefly, cells were seeded in a 96-well plate (10^4 cells/well) and incubated with samples at concentration ranging from 10 to 100 μM for […]. […] The resulting violet formazan precipitates were dissolved in isopropanol and the absorbance of each well was determined at 590 nm using a microplate reader with a 630 nm reference.

[7] = system: BChE; conditions: previous study ref 34; cited from earlier work

| Compound | EC50 [1] | IC50 [2] | Selectivity to eqBChE [3] | IC50 [3] | other results |
| --- | --- | --- | --- | --- | --- |
| Cc1ccc2oc(-c3cc(O)c(O)c(O)c3)cc2c1 [Compound 27] | 8.93 ± 0.57 µM | ≥ 100 µM | >6.2 | 16.1 ± 1.05 µM |  |
| Oc1cc(O)cc(-c2cc3cc(Br)ccc3o2)c1 [Compound 18] | 17.5 ± 0.93 µM | 66 ± 4.2 µM | 2.2 | 30 ± 2.7 µM |  |
| Oc1cc(-c2cc3cc(Br)ccc3o2)cc(O)c1O [Compound 25] | 9.46 ± 0.68 µM | 25 ± 1.9 µM | 0.90 | 27.6 ± 1.9 µM |  |
| Cc1c(C)c2c(c(C)c1O)CCC(C)(C(=O)O)O2 (stereo not drawn) [Trolox, reference compound] | 13 ± 1.1 µM |  |  |  |  |
| Cc1cccc2cc(-c3cc(O)c(O)c(O)c3)oc12 [Compound 26] | 6.6 ± 0.24 µM | 66 ± 5.4 µM | 3.3 | 19.8 ± 1.2 µM |  |
| Cc1cccc2cc(-c3cc(O)cc(O)c3)oc12 [Compound 19] | 19.3 ± 1.43 µM | > 100 µM | >10.0 | 10 ± 0.96 µM |  |
| Oc1cc(O)cc(-c2cc3ccccc3o2)c1 [Compound 21] | 23.2 ± 1.54 µM | > 100 µM | >4.0 | 25.2 ± 1.3 µM |  |
| Oc1cc(-c2cc3cccc(Cl)c3o2)cc(O)c1O [Compound 22] | 26.3 ± 1.46 µM | 50 ± 3.3 µM | 1.9 | 25.7 ± 1.6 µM |  |
| Oc1cc(-c2cc3ccccc3o2)cc(O)c1O [Compound 28] | 52.8 ± 2.43 µM | > 100 µM |  | > 100 µM | cholinesterase inhibitory activity (EeAChE) [2]: did not exert any cholinesterase inhibitory activity; cholinesterase inhibitory activity (eqBChE) [3]: did not exert any cholinesterase inhibitory activity |
| Oc1cc(O)cc(-c2cc3cccc(Cl)c3o2)c1 [Compound 15] | 14.9 µM | ≥ 100 µM | >16.0 | 6.23 ± 0.43 µM | type of inhibition [4]: mixed-type inhibitor; KIS (binding with the enzyme-substrate complex) [4]: 8.66 µM; Ki [4]: 13.9 µM; IC50 [5]: 27.5 ± 1.82 µM; hBChE inhibitory activity, times more active than galantamine [5]: 2 times; cytotoxic effect [6]: no considerable cytotoxic effect |
| Cc1ccc2oc(-c3cc(O)cc(O)c3)cc2c1 [Compound 20] | 18.2 ± 0.86 µM | > 100 µM | >8.0 | 12.5 ± 1.29 µM |  |
| Oc1cc(O)cc(-c2cc3cccc(Br)c3o2)c1 [Compound 17] | 16.7 ± 1.31 µM | 100 ± 6.1 µM | 28.0 | 3.57 ± 0.25 µM | eqBChE inhibitory activity, times more active than galantamine ([3]; relative to reference compound galantamine): ~8 times; type of inhibition [4]: non-competitive inhibitor; KIS (binding with the enzyme-substrate complex) [4]: 4.7 µM; Ki [4]: 4.3 µM; IC50 [5]: 27.5 ± 1.53 µM; hBChE inhibitory activity, times more active than galantamine [5]: 2 times; cytotoxic effect [6]: no considerable cytotoxic effect |
| Oc1cc(O)cc(-c2cc3cc(Cl)ccc3o2)c1 [Compound 16] | 17.6 ± 0.82 µM | 80 ± 7.3 µM | 2.2 | 36.6 ± 2.9 µM |  |
| Oc1cc(-c2cc3cccc(Br)c3o2)cc(O)c1O [Compound 24] | 15.4 ± 0.81 µM | 37 ± 2.6 µM | 2.0 | 18.4 ± 0.93 µM |  |
| Oc1cc(-c2cc3cc(Cl)ccc3o2)cc(O)c1O [Compound 23] | 12.5 ± 0.44 µM | 30 ± 2.8 µM | 0.78 | 38.2 ± 2.4 µM |  |
